Measured values from US12059433B2, “Treatment for autistic spectrum disorder (ASD) and relevant symptoms” (ACADEMIA SINICA, priority 2019, dated 2024).

What was measured:
[1] = system: Tbr1+/− mice; conditions: cited from earlier work; for behavioral defects and autism-like behaviors: refs [49, 50, 51]
[2] = system: Shank2−/− mice; conditions: previous studies [35-38]; cited from earlier work
[3] = system: Cttnbp2−/− mice; test: Reciprocal social interaction (RSI) test, Cttnbp2−/− mice; format: in vivo, mouse
Experimental: (§1) Mouse behaviors were recorded by videotaping from above. […] Aggressive behavior was not assessed. […] The zinc concentrations were normalized by protein amounts. […] The first trial was performed before zinc supplementation. […] Reciprocal social interaction trials were performed as described above. To analyze the effect of D-cycloserine (DCS, ab120121, Abcam) on social behaviors of Cttnbp2 mutant mice, adult mice (˜8 weeks old) were first habituated to handling by subjecting them to an open field with or without inanimate objects. Mice were then isolated until ˜10 weeks old for reciprocal social interaction trials. During isolation, mice were habituated to intraperitoneal injection, which effectively reduces their anxiety response to intraperitoneal injection during the experimental period. On day 1 of the experiment, saline control (0.9% of NaCl) was intraperitoneally injected into the test animal 30 min before a reciprocal social interaction trial, conducted as described above. On day 2 of the experiment, D-cycloserine solution (2 mg/kg in 0.9% of NaCl) was intraperitoneally injected into mice 30 min before a reciprocal social interaction trial.

[4] = system: CTTNBP2 R533* mice; test: Reciprocal social interaction (RSI) test, R533* mutant mice; format: in vivo, mouse
Experimental: as §1

[5] = system: CTTNBP2 M120I mice; test: Reciprocal social interaction (RSI) test, M120I mutant mice; format: in vivo, mouse; conditions: for social interaction in RSI, single supplement: CTTNBP2 M120I mice, individually provided: zinc (20 ppm), BCAA (0.225%), serine (0.5%)
Experimental: Before RSI, mice were individually isolated for at least a week. For the experiment, an unfamiliar adult mouse was put into the home cage of the test mouse for 10 min. The lid of the cage was removed during the entire session. Mouse behaviors were recorded by videotaping from above. The total time a test mouse spent interacting with and gently sniffing the unfamiliar mouse was manually recorded. Aggressive behavior was not assessed.
A supplement or supplement mixture was prepared by mixing a zinc ion source, a serine component and/or BCAAs at various concentrations in drinking water for behavior analyses.
We tested three different ASD mouse models, i.e. Nf1+/−, Tbr1+/−, and Cttnbp2 M120I mice. Before taking supplement, mice were subjected to the first reciprocal social interaction test. After taking supplement for 7 days, mice were analyzed again using reciprocal social interaction to evaluate the effect of nutritional supplementation.

[6] = zinc supplementation in drinking water, experimental period
[7] = system: wild-type mice; conditions: 40 ppm zinc in drinking water for 7 days
Experimental: (§2) The concentration of zinc in the mouse chow (5K54, LabDiet) provided in our animal facility is 84 ppm. To increase the zinc intake to ˜150 ppm, mice were provided with ZnSO4 (Z0251, Sigma-Aldrich) in drinking water at a concentration of 40 ppm, which is based on daily consumption of ˜5 ml water and 2.5 g chow by each mouse. To study the expression of synaptic proteins after zinc supplementation, adult mice (˜8 weeks old) were fed with zinc-supplemented water or normal drinking water as control for 7 days and then sacrificed for synaptosomal analysis as described above. To validate the zinc levels in brain, zinc quantification kit (ab102597, Abcam) was used according to manufacturer's instruction. The zinc concentrations were normalized by protein amounts. To study the effect of zinc supplementation on social behavior of Cttnbp2 deletion and mutant mice, three consecutive trials of reciprocal social interaction were performed at intervals of 7 days (FIG. 8C). The first trial was performed before zinc supplementation. After the first trial, mice were provided with zinc-supplemented water (40 ppm) for 7 days and then subjected to the second trial. After the second trial, zinc-supplemented water was replaced with normal drinking water for 7 days and mice then underwent the third trial. Reciprocal social interaction trials were performed as described above.

[8] = Cttnbp2−/− mice; 40 ppm zinc in drinking water for 7 days vs regular water
Experimental: as §2

[9] = system: synaptic proteins and glutamate receptors in synaptosomal fractions of Cttnbp2−/− mouse brains; conditions: 40 ppm zinc in drinking water for 7 days vs regular water
Experimental: One hemisphere of the forebrains from adult mice (˜8-weeks-old) were isolated and homogenized using a tissue dounce homogenizer with a loose pestle in 1 ml sucrose buffer [50 mM Tris-Cl pH 7.4, 320 mM sucrose, 2 mM DTT, 2 μg/ml leupeptin, 2 μg/ml pepstatin-A, 2 μg/ml aproteinin, 2 mM PMSF, 2 μg/ml MG132]. An aliquot of 50 μl of total homogenate was kept. The remainder of the total homogenate was centrifuged twice at 800×g for 10 min at 4° C. The supernatant was centrifuged at 9200×g for 15 min to collect the pellet as a crude synaptosomal fraction. The protein concentrations of total homogenates and synaptosomal fractions were determined by Bradford assay (Bio-Rad Protein Assay Dye Reagent Concentrate, Cat #5000006). Synaptosomal protein samples were then analyzed with LC-MS-MS and immunoblotting.
To validate CTTNBP2 expression in knockout mice, adult mouse brain (˜8 weeks old) samples were homogenized in RIPA buffer. After 30 min, debris was removed by centrifugation (13000 rpm in a microcentrifuge for 20 min). The supernatants were collected and protein amounts were determined by Bio-Rad Protein Assay Dye Reagent Concentrate. Protein samples were denatured by 2× sample buffer and boiled for 10 min. Five μg of protein samples were separated by SDS-PAGE and then transferred to PVDF membrane. Membranes were blocked using blocking buffer [5% skim milk and 0.1% Tween-20 in PBS] for 30 min and hybridized with primary antibodies. In principle, primary antibody was added into blocking buffer and hybridized with the membrane overnight at 4° C. or for 3 hr at room temperature. Horseradish peroxidase-conjugated goat anti-mouse, rabbit, or guinea pig secondary antibodies were used to detect primary antibody and were visualized using a Western Lightening Plus ECL system (PerkinElmer).
as §2

## N[C@@H]1CONC1=O [D-cycloserine, (4R)-4-amino-1,2-oxazolidin-3-one, reference compound]
[1]; previous studies [35-38]
  social behaviors: improves
[1]
  behavioral defects and autism-like behaviors: ameliorate the behavioral defects and improve autism-like behaviors
[2]
  social behaviors: improves
[3]; 2 mg/kg intraperitoneally 30 min before RSI, vs saline control
  social interaction behavior in RSI test: increased social interaction behavior
[4]; R533* mutant mice, 2 mg/kg intraperitoneally 30 min before RSI, vs saline
  social interaction behaviors in RSI test: improved
[5]; M120I mutant mice, 2 mg/kg intraperitoneally 30 min before RSI, vs saline
  social interaction behaviors in RSI test: improved

## O.O.O.O.O.O.O.O=S(=O)([O-])[O-].[Zn+2] [zinc, Zinc sulfate heptahydrate]
[6]
  body weight: nor did it alter
  volumes of water drunk daily: nor did it alter
[3]; 7 days after discontinuing zinc supplementation, vs second RSI test
  social interaction, third RSI test: reduced
[3]; after 40 ppm zinc in drinking water for 7 days, vs first RSI test
  time interacting with the unfamiliar mouse, second RSI test: spent significantly longer interacting with the unfamiliar mouse
[7]
  social behaviors in RSI tests: did not noticeably influence
[8]
  concentration of zinc in brains: increase
[9]
  GRIN1 expression level in synaptosomal fractions: increased
  GRIN2B expression level in synaptosomal fractions: increased
  MOB4 expression level in synaptosomal fractions: increased
  RAC3 expression level in synaptosomal fractions: increased
  SHANK2 expression level in synaptosomal fractions: increased
  SHANK3 expression level in synaptosomal fractions: increased
  STRN expression level in synaptosomal fractions: increased
  cortactin expression level in synaptosomal fractions: increased
  levels of GRIA1 in synaptosomal fractions: not noticeably altered
  levels of GRIA2 in synaptosomal fractions: not noticeably altered
  synaptic levels of DPYSL3: reduced
[4]; R533* mice, 7 days after discontinuing zinc supplementation, vs second RSI test
  social interaction, third RSI test: tended to be lowered, but it was not statistically different from those of the second RSI
[4]; R533* mice, after 40 ppm zinc in drinking water for 7 days, vs first RSI test
  time interacting with the unfamiliar mouse, second RSI test: spent significantly longer interacting with the unfamiliar mouse
[5]
  social interaction in RSI, single supplement: did not improve

## Oc1c(I)cc(Cl)c2cccnc12 [clioquinol]
[1]
  behavioral defects and autism-like behaviors: ameliorate the behavioral defects and improve autism-like behaviors

## N[C@@H](CO)C(=O)O [serine, L-Serine]
[5]
  social interaction in RSI, single supplement: did not improve
